Laboratory results reported in patent US20070270339A1, “Use of GPCR54 Ligands for the Treatment of Infertility” (SERONO, INC., priority 2004, published 2007).
No end group written: not given here.

Experiments:
GPCR54 = GPCR54 (Homo sapiens, UniProt Q969F8); conditions: peptides from placental tissue extract, Kotani et al. 2001; cited from earlier work
[1] = test system: gonadotropic axis (plasma LH and FSH); test: i.v. injection of Kiss-1: plasma LH and FSH levels, with or without Antide pretreatment; format: in vivo, rat
Description: (§1) All experiments were conducted in female Sprague-Dawley rats (180-200 g) obtained from Charles River (MA), fed with standard laboratory chow and water ad libitum, kept on 12 h light-dark in temperature and humidity controlled room.
(§2) Ovariectomy and implantation of estrogen-containing capsule. To remove daily variance of plasma estrogen levels due to variable estrous cycle, both ovaries were removed under anesthesia through incision at the animal's back. Right before closure of the incision, two estrogen-containing capsules (0.5 mg/coupsule, Innovative Research of America, FL) were inserted subcutaneously at the middle of animal's back to maintain consistent basal physiological levels of plasma estrogen. Rats were allowed to recover for 7 days.
Jugular cannula insertion and tethering to automated blood sampler. The right jugular vein of anesthetized rats was exposed through a neck incision. A retaining suture was tied to the exposed vein at rostral end to manipulate the vein. The caudal end of the vein was clamped with a small forceps to prevent bleeding while a cannula, a polyethene tubing (OD 1.0 mm), was inserted in the middle of the vein through a 0.5 mm incision made with iris scissors. After the insertion of the cannula, a suture was tied around the vein at the caudal end to secure the cannula within the vein. The incision at the neck was closed with wound clips and the outer end of the cannula was attached to a tubing of an automated blood sampler (Bioanalytical Systems Inc., IN) filled with heparin-containing (20 IU/ml) sterile saline. The automated blood sampler consisting of a turning cage equipped with a food box and a water bottle, a balanced arm, a pumping system, a fraction collector and a controller was used to collect blood samples. A rat inserted of a jugular cannula was tethered to the balanced arm via a loosely-fitting plastic collar. The cage rotates to the counter direction of animal's movement to prevent twisting of the jugular cannula connected to a tubing of the sampler, as well as to allow the rat to eat, drink and move freely during the course of the blood collection. Rats were allowed to recover for 24 hours.
All experiments were carried out around between 13 h and 14 h. […]
(§3) Changes of plasma LH and FSH concentration (ng/ml) after injection were obtained as the area under the curve (AUC). It was first determined for each animal by calculating the sum of post-treatment hormonal levels at 15, 30 and 45 min each of which was subtracted by basal levels (an average of pre-treatment levels at −15 and 0 min), then averaged as a group. Statistical differences among treatment groups were determined by one-way ANOVA followed by LSD as a post-hoc test. […]

[2] = test system: gonadotropic axis (plasma LH and FSH); test: i.c.v. injection of Kiss-1: plasma LH and FSH levels; format: in vivo, rat
Description: as §1
Implantation of intracerebroventricular cannula for i.c.v. experiment. The head of anesthetized rats was placed in the stereotaxic instrument and oriented such that the bregma and lambda was horizontal. An incision was made along the sagittal midline in an anterior-to-posterior direction. A hole, 1.5 mm in diameter, was drilled through the skull 0.9 mm posterior and 0.0 mm lateral to bregma. A 25 mm×22 gauge stainless steel cannula was lowered about 7 mm until cerebrospinal fluid could be aspirated from the 3rd ventricle via a 1 cc syringe connected to the cannula by a 5 cm section of Silastic tubing. After sealing the outer opening of the cannula, it was anchored to the skull with three stainless steel screws and dental acrylic cement then the incision was closed. Rats were allowed to recover for 14 days.
as §2
Jugular cannula insertion and tethering to automated blood sampler. The right jugular vein of anesthetized rats was exposed through a neck incision. A retaining suture was tied to the exposed vein at rostral end to manipulate the vein. The caudal end of the vein was clamped with a small forceps to prevent bleeding while a cannula, a polyethene tubing (OD 1.0 mm), was inserted in the middle of the vein through a 0.5 mm incision made with iris scissors. After the insertion of the cannula, a suture was tied around the vein at the caudal end to secure the cannula within the vein. […]
as §3

LH and FSH release = test: in vivo comparison of GnRH and Kiss1 on release of LH and FSH over 45 minutes (FIG. 1); parameters: species or system rat; conditions: single administration, compared with GnRH
Description: All experiments were carried out around between 13 h and 14 h. […] Blood samples (100 ul) were removed before (−15 and 0 min) and after (15, 30, 45 min) injection with the automated blood sampler. Each blood sample was replaced with an equivalent volume of the heparin-containing (20 IU/ml) sterile saline. Plasma was extracted and stored at −20° C. until determination of LH and FSH by enzyme-linked immunoassay and radioimmunoassay, respectively.
Changes of plasma LH and FSH concentration (ng/ml) after injection were obtained as the area under the curve (AUC). It was first determined for each animal by calculating the sum of post-treatment hormonal levels at 15, 30 and 45 min each of which was subtracted by basal levels (an average of pre-treatment levels at −15 and 0 min), then averaged as a group. Statistical differences among treatment groups were determined by one-way ANOVA followed by LSD as a post-hoc test. An initial data set is shown in FIGS. 1A-P. Further data are described in Examples 2 and 3 below.

Sequence of GPCR54 (Q969F8 whole entry): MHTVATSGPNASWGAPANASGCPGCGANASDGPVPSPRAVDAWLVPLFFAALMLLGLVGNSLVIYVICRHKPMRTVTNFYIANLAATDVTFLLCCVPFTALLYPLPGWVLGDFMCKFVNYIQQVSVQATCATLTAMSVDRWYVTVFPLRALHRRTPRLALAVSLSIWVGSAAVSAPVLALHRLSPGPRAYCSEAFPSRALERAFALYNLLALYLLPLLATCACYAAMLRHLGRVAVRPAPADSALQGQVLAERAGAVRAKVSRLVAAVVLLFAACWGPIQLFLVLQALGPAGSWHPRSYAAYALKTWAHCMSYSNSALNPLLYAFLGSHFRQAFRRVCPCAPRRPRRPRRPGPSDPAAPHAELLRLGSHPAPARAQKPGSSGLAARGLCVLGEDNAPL

Question: With “SEQ ID NO:6: 13-amino acid kisspeptin from Kiss-1 with RF-amide at the C-terminus (Kotani et al.) (LPNYNWNSFGLRF-NH2; listed as Homo sapiens)” as the substance, how does the “agonist activity at GPCR54” value (GPCR54) read?
Answer: agonists of GPCR54

Question: Which “prevention of GnRH- and Kiss-1-induced elevations of circulating gonadotropins levels” value ([1]; Antide pretreatment 15 min before injection of 400 ug/kg of Kiss-1) does the source give for Antide [reference compound] here?
Answer: successfully prevented

Question: Which “agonist activity at GPCR54” value (GPCR54) does the source give for “SEQ ID NO: 4: 54-amino acid kisspeptin from Kiss-1 with RF-amide at the C-terminus (Kotani et al.) (GTSLSPPPESSGSPQQPGLSAPHSRQIPAPQGAVLVQREKDLPNYNWNSFGLRF-NH2; listed as Homo sapiens)” here?
Answer: agonists of GPCR54

Question: Which “agonist activity at GPCR54” value (GPCR54) does the source give for “SEQ ID NO:5: 14-amino acid kisspeptin from Kiss-1 with RF-amide at the C-terminus (Kotani et al.) (DLPNYNWNSFGLRF-NH2; listed as Homo sapiens)” here?
Answer: agonists of GPCR54

Question: With “GnRH: GnRH, a positive control, obtained from Sigma (QHWSYGLRPG; Gonadoliberin-1; UniProt P01148 24-33, looked up) [reference compound]” as the substance, how does the circulating gonadotropins levels ([1]; GnRH positive control, estrogen-treated ovariectomized rats) read?
Answer: induced elevations of circulating gonadotropins levels

Question: Which “i.c.v. dose to yield FSH response as fraction of i.v. dose” value ([2]; FSH, i.c.v. versus i.v.) does the source give for “Tyr-Asn-Trp-Asn-Ser-Phe-Gly-Leu-Arg-Phe-NH2 (YNWNSFGLRF-NH2; listed as Homo sapiens) [Kiss-1]” here?
Answer: 1/100

Question: And the “i.c.v. dose to yield LH response as fraction of i.v. dose” value ([2]; LH, i.c.v. versus i.v.)?
Answer: 1/25

Question: And the LH release ([2]; i.c.v. injection, estrogen-treated ovariectomized rats)?
Answer: dose-dependently stimulated LH release

Question: And the FSH levels ([2]; i.c.v. injection, higher dose not as effective as the lower dose)?
Answer: significant increase of FSH levels

Question: And the “plasma FSH levels” value ([1]; i.v. injection, estrogen-treated ovariectomized rats)?
Answer: dose-dependent increases

Question: What about the “plasma LH levels” value ([1]; i.v. injection, estrogen-treated ovariectomized rats, with the exception of LH response at the highest dose) of the same substance?
Answer: dose-dependent increases

Question: And the “LH and FSH production” value (LH and FSH release)?
Answer: sufficient to drive LH and FSH production similar to GnRH
